From US20240041042A1, “1-(PYRIDYL)-5-AZINYLPYRAZOLE DERIVATIVES, AND THEIR USE FOR CONTROL OF UNDESIRED PLANT GROWTH” (Bayer Aktiengesellschaft, priority 2020, published 2024)
Like-named read-outs stand apart in the source and are kept apart here.

Legend:
Assay type in all cases: in vivo
[1] = tested on: Abutilon theophrasti (ABUTH); assay: Pre-emergence herbicidal action against ABUTH; details: 100% = plants have died
In short: (§1)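 Dosages of 320 g/ha or less; pre-emergence; WP or EC in aqueous spray, 0.5% additive, 600 l/ha; greenhouse; visual % effect after ~3 wk relative to control pots.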

[2] = tested on: Alopecurus myosuroides (ALOMY); assay: Pre-emergence herbicidal action against ALOMY; details: scored visually after about 3 weeks, 100% = plants have died
In short: as §1

[3] = tested on: Amaranthus retroflexus (AMARE); assay: Pre-emergence herbicidal action against AMARE; details: visual scoring after about 3 weeks vs untreated controls
In short: as §1

[4] = tested on: Avena fatua (AVEFA); assay: Pre-emergence herbicidal action against AVEFA; details: visual scoring after about 3 weeks vs untreated controls
In short: as §1

[5] = tested on: Echinochloa crus-galli (ECHCG); assay: Pre-emergence herbicidal action against ECHCG
In short: as §1

[6] = tested on: Lolium rigidum (LOLRI); assay: Pre-emergence herbicidal action against LOLRI
In short: as §1

[7] = tested on: Matricaria inodora (MATIN); assay: Pre-emergence herbicidal action against MATIN
In short: as §1

[8] = tested on: Pharbitis purpurea (PHBPU); assay: Pre-emergence herbicidal action against PHBPU
In short: as §1

[9] = tested on: Polygonum convolvulus (POLCO); assay: Pre-emergence herbicidal action against POLCO
In short: as §1

[10] = tested on: Setaria viridis (SETVI); assay: Pre-emergence herbicidal action against SETVI
In short: as §1

[11] = tested on: Verconica persica (VERPE); assay: Pre-emergence herbicidal action against VERPE
In short: as §1

[12] = tested on: Viola tricolor (VIOTR); assay: Pre-emergence herbicidal action against VIOTR
In short: as §1

[13] = tested on: Abutilon theophrasti (ABUTH); assay: Post-emergence herbicidal action against ABUTH; details: visual rating about 3 weeks after treatment vs untreated controls (100% = plants have died, 0% = like control plants)
In short: (§2)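 Post-emergence greenhouse spray, one-leaf stage, 600 l/ha water plus 0.5% additive; WP or EC formulations; application rates 320 g/ha or lower. Visual % damage vs untreated controls at ~3 weeks.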

[14] = tested on: Alopecurus myosuroides (ALOMY); assay: Post-emergence herbicidal action against ALOMY; details: visual rating about 3 weeks after treatment vs untreated controls (100% = plants have died, 0% = like control plants)
In short: as §2

[15] = tested on: Amaranthus retroflexus (AMARE); assay: Post-emergence herbicidal action against AMARE
In short: as §2

[16] = tested on: Avena fatua (AVEFA); assay: Post-emergence herbicidal action against AVEFA; details: visual rating about 3 weeks after treatment
In short: as §2

[17] = tested on: Echinochloa crus-galli (ECHCG); assay: Post-emergence herbicidal action against ECHCG
In short: as §2

[18] = tested on: Matricaria inodora (MATIN); assay: Post-emergence herbicidal action against MATIN
In short: as §2

[19] = tested on: Pharbitis purpurea (PHBPU); assay: Post-emergence herbicidal action against PHBPU
In short: as §2

[20] = tested on: Polygonum convolvulus (POLCO); assay: Post-emergence herbicidal action against POLCO; details: dosage 80 g/ha
In short: as §2

[21] = tested on: Setaria viridis (SETVI); assay: Post-emergence herbicidal action against SETVI
In short: as §2

[22] = tested on: Verconica persica (VERPE); assay: Post-emergence herbicidal action against VERPE
In short: as §2

[23] = tested on: Oryza sativa (ORYSA); details: crop plant compatibility
In short: (§3)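 Percent effect on the crop was judged by eye against untreated controls, where 0% means like control and 100% means dead plants. Plants had been sprayed post-emergence at the one-leaf stage and then kept under optimum greenhouse conditions for about 3 weeks.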

[24] = tested on: Zea mays (ZEAMX)
In short: as §3

[25] = tested on: Lolium rigidum (LOLRI); assay: Post-emergence herbicidal action against LOLRI
In short: as §2

[26] = tested on: Viola tricolor (VIOTR); assay: Post-emergence herbicidal action against VIOTR
In short: as §2

[27] = Dosage column 320 g/ha (title prints 3200 g/ha), scored visually after about 3 weeks
[28] = 80 g/ha, visual rating about 3 weeks after treatment vs untreated controls (100% = plants have died, 0% = like control plants)

O=C(O)COc1nn(-c2ccccn2)c(-c2cncc(F)c2)c1Cl [Example I-81]
Pre-emergence action against ABUTH [1, 27]: 90% | Pre-emergence action against ALOMY ([2]; 80 g/ha): 80% | Pre-emergence action against ALOMY ([2]; 320 g/ha): 100% | Pre-emergence action against AMARE in % ([3]; 80 g/ha): 80% | Pre-emergence action against AMARE in % ([3]; 320 g/ha): 90% | Pre-emergence action against AVEFA in % ([4]; 320 g/ha): 80% | Pre-emergence action against ECHCG in % ([5]; dosage 80 g/ha): 90% | Pre-emergence action against ECHCG in % ([5]; dosage 320 g/ha): 100% | Pre-emergence action against LOLRI in % ([6]; dosage 80 g/ha): 90% | Pre-emergence action against LOLRI in % ([6]; dosage 320 g/ha): 100% | Pre-emergence action against MATIN in % ([7]; dosage 80 g/ha): 80% | Pre-emergence action against MATIN in % ([7]; dosage 320 g/ha): 90% | Pre-emergence action against PHBPU in % ([8]; dosage 80 g/ha): 90% | Pre-emergence action against PHBPU in % ([8]; dosage 320 g/ha): 100% | Pre-emergence action against POLCO in % ([9]; dosage 80 g/ha): 90% | Pre-emergence action against POLCO in % ([9]; dosage 320 g/ha): 90% | Pre-emergence action against SETVI in % ([10]; dosage 80 g/ha): 90% | Pre-emergence action against SETVI in % ([10]; dosage 320 g/ha): 100% | Pre-emergence action against VERPE in % ([11]; dosage 320 g/ha): 90% | Pre-emergence action against VIOTR in % ([12]; 320 g/ha, Viola tricolor): 100% | Pre-emergence action against VIOTR in % ([12]; dosage 80 g/ha): 80% | Post-emergence action against ABUTH in % ([13]; 80 g/ha): 80% | Post-emergence action against ALOMY in % ([14]; 80 g/ha): 90% | Post-emergence action against AMARE in % [15, 28]: 90% | Post-emergence action against AVEFA in % ([16]; 80 g/ha): 90% | Post-emergence action against ECHCG in % ([17]; dosage 80 g/ha): 90% | Post-emergence action against MATIN in % ([18]; dosage 80 g/ha): 90% | Post-emergence action against PHBPU in % ([19]; dosage 80 g/ha): 90% | Post-emergence action against POLCO in % [20]: 80% | Post-emergence action against SETVI in % ([21]; dosage 80 g/ha): 80% | Post-emergence action against VERPE in % ([22]; dosage 80 g/ha): 90% | Post-emergence action against ORYSA in % ([23]; 20 g/ha, effect vs untreated controls): 0% | Post-emergence action against ORYSA in % ([23]; 80 g/ha, effect in comparison to untreated controls): 0% | Post-emergence action against ZEAMX in % (crop plant compatibility) ([24]; 20 g/ha, ZEAMX, effect in comparison to untreated controls): 0% | Post-emergence action against ZEAMX in % ([24]; crop plant compatibility, 80 g/ha, effect vs untreated controls): 0%

COC(=O)C(C)NC(=O)[C@@H](C)Oc1nn(-c2ccccn2)c(-c2cncc(F)c2)c1Cl (stereo partly shown) [Example I-199]
Pre-emergence action against ABUTH ([1]; 80 g/ha, scored visually after about 3 weeks vs untreated controls, 0% = like control plants): 80% | Pre-emergence action against ABUTH [1, 27]: 90% | Pre-emergence action against ALOMY ([2]; 80 g/ha): 90% | Pre-emergence action against ALOMY ([2]; 320 g/ha): 90% | Pre-emergence action against AMARE in % ([3]; 80 g/ha): 100% | Pre-emergence action against AMARE in % ([3]; 320 g/ha): 100% | Pre-emergence action against AVEFA in % ([4]; 80 g/ha): 80% | Pre-emergence action against AVEFA in % ([4]; 320 g/ha): 90% | Pre-emergence action against ECHCG in % ([5]; dosage 80 g/ha): 90% | Pre-emergence action against ECHCG in % ([5]; dosage 320 g/ha): 90% | Pre-emergence action against LOLRI in % ([6]; dosage 80 g/ha): 100% | Pre-emergence action against LOLRI in % ([6]; dosage 320 g/ha): 100% | Pre-emergence action against MATIN in % ([7]; dosage 80 g/ha): 90% | Pre-emergence action against MATIN in % ([7]; dosage 320 g/ha): 100% | Pre-emergence action against PHBPU in % ([8]; dosage 80 g/ha): 80% | Pre-emergence action against PHBPU in % ([8]; dosage 320 g/ha): 90% | Pre-emergence action against POLCO in % ([9]; dosage 80 g/ha): 80% | Pre-emergence action against POLCO in % ([9]; dosage 320 g/ha): 90% | Pre-emergence action against SETVI in % ([10]; dosage 80 g/ha): 90% | Pre-emergence action against SETVI in % ([10]; dosage 320 g/ha): 100% | Pre-emergence action against VERPE in % ([11]; dosage 80 g/ha): 90% | Pre-emergence action against VERPE in % ([11]; dosage 320 g/ha): 100% | Pre-emergence action against VIOTR in % ([12]; 320 g/ha, Viola tricolor): 100% | Pre-emergence action against VIOTR in % ([12]; dosage 80 g/ha): 100% | Post-emergence action against ABUTH in % ([13]; 320 g/ha): 80% | Post-emergence action against ALOMY in % ([14]; 320 g/ha): 90% | Post-emergence action against AMARE in % [15, 28]: 80% | Post-emergence action against AMARE in % ([15]; 320 g/ha, visual rating about 3 weeks after treatment): 90% | Post-emergence action against AVEFA in % ([16]; 320 g/ha): 80% | Post-emergence action against ECHCG in % ([17]; dosage 80 g/ha): 90% | Post-emergence action against ECHCG in % ([17]; dosage 320 g/ha): 90% | Post-emergence action against LOLRI in % ([25]; dosage 80 g/ha): 90% | Post-emergence action against LOLRI in % ([25]; dosage 320 g/ha): 90% | Post-emergence action against MATIN in % ([18]; dosage 320 g/ha): 80% | Post-emergence action against PHBPU in % ([19]; dosage 320 g/ha): 80% | Post-emergence action against SETVI in % ([21]; dosage 80 g/ha): 80% | Post-emergence action against SETVI in % ([21]; dosage 320 g/ha): 90% | Post-emergence action against VERPE in % ([22]; 320 g/ha, VERPE): 90% | Post-emergence action against VERPE in % ([22]; dosage 80 g/ha): 90% | Post-emergence action against VIOTR in % ([26]; 80 g/ha): 80% | Post-emergence action against VIOTR in % ([26]; 320 g/ha): 80%
